Results published in publication PMC10882719 (Frontiers in Neuroscience, 2024).
Where two headings read alike, the source gives them in different places.

Assays:
Type in all cases: cell-based
168 GPCRs [1] = molecular target: T1, 168 GPCRs (Homo sapiens, UniProt P41145); conditions: OPRK1
T1 construct: host or cells: PathHunter cell lines
Description: (§1) Studies were performed at Eurofins DiscoverX Corporation (Fremont, CA) using the GPCRmax assay according to the manufacturer’s protocols. […] Activity greater than 30% typically indicates agonist activity and inhibition greater than 50% indicates antagonist activity. This assay uses enzyme fragment complementation with […] as the functional reporter. When a GPCR is activated, […] is recruited and the reporter is detectable. GPCRmax offers a high-throughput screen of 168 GPCRs for agonist or antagonist activity. Briefly, PathHunter cell lines were propagated, seeded into 384-well microplates and incubated at 37°C. […] Microplates were read following signal generation with a PerkinElmer Envision™ instrument for chemiluminescent signal detection. Compound activity was analyzed using CBIS data analysis suite (ChemInnovation, CA) to determine raw values (RLU). For agonist mode assay, percentage activity was calculated using the following formula: % Activity =100% × (mean RLU of test sample - mean RLU of vehicle control) / (mean MAX control ligand - mean RLU of vehicle control). For antagonist mode assay, percentage inhibition was calculated using the following formula: % Inhibition =100% × (1 - (mean RLU of test sample - mean RLU of vehicle control) / (mean RLU of EC80 control - mean RLU of vehicle control)).

168 GPCRs [2] = molecular target: T2, 168 GPCRs (Homo sapiens, UniProt Q01726); conditions: MC1R
T2 construct: host or cells: PathHunter cell lines
Description: as §1

168 GPCRs [3] = molecular target: T3, 168 GPCRs (Homo sapiens, UniProt P20309)
T3 construct: host or cells: PathHunter cell lines
Description: as §1

168 GPCRs [4] = molecular target: T4, 168 GPCRs (Homo sapiens, UniProt P49019); conditions: GPR109B
T4 construct: host or cells: PathHunter cell lines
Description: as §1

168 GPCRs [5] = molecular target: T5, 168 GPCRs (Homo sapiens, UniProt P47211)
T5 construct: host or cells: PathHunter cell lines
T5 sequence (P47211 1-349): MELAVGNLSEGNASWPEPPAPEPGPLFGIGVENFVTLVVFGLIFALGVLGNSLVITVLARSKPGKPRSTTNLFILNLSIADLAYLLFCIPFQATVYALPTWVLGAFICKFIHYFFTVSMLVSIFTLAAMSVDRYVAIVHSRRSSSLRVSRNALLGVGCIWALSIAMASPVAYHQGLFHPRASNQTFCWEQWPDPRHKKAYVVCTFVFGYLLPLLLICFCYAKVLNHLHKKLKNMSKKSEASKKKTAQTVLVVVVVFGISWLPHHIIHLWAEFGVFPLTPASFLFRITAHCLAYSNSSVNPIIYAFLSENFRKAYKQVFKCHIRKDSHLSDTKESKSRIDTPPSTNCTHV
Description: as §1

168 GPCRs [6] = molecular target: T6, 168 GPCRs (Homo sapiens, UniProt P32247)
T6 construct: host or cells: PathHunter cell lines
T6 sequence (P32247 1-399): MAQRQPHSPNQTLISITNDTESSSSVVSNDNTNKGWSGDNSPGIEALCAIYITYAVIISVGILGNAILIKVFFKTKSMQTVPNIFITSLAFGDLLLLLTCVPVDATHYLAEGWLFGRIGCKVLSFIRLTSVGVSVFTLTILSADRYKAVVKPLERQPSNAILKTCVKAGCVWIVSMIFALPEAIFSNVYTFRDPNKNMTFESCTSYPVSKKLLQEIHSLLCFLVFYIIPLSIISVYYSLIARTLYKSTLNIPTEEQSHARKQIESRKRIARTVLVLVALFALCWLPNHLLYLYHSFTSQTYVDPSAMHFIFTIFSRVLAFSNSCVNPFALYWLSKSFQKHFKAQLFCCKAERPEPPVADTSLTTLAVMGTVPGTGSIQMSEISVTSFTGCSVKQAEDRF
Description: as §1

168 GPCRs [7] = molecular target: T7, 168 GPCRs (Homo sapiens, UniProt P25103); conditions: TACR1
T7 construct: host or cells: PathHunter cell lines
Description: as §1

168 GPCRs [8] = molecular target: T8, 168 GPCRs (Homo sapiens, UniProt P25929); conditions: NPY1R
T8 construct: host or cells: PathHunter cell lines
T8 sequence (P25929 1-384): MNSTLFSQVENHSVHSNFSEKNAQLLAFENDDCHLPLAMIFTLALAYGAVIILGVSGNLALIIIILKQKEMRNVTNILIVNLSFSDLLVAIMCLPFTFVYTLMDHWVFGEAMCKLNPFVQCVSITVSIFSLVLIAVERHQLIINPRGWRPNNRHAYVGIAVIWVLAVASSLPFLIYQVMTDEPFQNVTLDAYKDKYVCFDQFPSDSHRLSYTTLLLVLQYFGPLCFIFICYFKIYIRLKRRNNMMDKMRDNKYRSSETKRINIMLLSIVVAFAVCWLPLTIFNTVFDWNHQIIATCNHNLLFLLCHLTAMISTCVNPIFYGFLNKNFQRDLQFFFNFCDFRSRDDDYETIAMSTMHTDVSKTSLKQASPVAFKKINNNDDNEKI
Description: as §1

168 GPCRs [9] = molecular target: T9, 168 GPCRs (Homo sapiens, UniProt P22888); conditions: LHCGR
T9 construct: host or cells: PathHunter cell lines
Description: as §1

T2 sequence (Q01726 whole entry): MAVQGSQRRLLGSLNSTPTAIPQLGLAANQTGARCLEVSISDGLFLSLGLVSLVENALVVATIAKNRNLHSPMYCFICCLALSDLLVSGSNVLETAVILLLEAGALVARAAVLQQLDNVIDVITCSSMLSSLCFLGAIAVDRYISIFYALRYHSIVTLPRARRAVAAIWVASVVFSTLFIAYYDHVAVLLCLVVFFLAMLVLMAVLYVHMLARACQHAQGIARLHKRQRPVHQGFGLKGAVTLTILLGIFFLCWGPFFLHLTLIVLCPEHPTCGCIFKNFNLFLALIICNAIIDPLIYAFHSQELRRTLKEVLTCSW
T1 sequence (P41145 whole entry): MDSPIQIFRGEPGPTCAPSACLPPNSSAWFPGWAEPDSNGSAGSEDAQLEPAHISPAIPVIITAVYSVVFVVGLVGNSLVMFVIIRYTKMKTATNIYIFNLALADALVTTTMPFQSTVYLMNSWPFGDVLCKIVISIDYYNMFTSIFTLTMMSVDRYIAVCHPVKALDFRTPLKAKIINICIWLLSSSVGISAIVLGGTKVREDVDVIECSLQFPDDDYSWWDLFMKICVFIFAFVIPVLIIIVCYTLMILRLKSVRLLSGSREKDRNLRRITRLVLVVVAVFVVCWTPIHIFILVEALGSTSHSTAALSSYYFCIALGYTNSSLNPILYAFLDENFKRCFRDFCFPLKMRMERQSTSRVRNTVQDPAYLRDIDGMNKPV
T7 sequence (P25103 whole entry): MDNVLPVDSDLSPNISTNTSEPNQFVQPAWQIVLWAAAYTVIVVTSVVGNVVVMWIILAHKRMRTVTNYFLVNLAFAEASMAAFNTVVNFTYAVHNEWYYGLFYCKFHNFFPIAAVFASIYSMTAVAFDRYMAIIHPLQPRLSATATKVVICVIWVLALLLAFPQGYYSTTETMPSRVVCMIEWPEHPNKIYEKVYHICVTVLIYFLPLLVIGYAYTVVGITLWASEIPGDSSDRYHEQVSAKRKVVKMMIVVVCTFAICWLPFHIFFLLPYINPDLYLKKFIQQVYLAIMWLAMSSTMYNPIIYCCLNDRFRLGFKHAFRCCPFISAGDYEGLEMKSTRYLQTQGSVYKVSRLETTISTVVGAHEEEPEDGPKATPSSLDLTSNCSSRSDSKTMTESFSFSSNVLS
T4 sequence (P49019 whole entry): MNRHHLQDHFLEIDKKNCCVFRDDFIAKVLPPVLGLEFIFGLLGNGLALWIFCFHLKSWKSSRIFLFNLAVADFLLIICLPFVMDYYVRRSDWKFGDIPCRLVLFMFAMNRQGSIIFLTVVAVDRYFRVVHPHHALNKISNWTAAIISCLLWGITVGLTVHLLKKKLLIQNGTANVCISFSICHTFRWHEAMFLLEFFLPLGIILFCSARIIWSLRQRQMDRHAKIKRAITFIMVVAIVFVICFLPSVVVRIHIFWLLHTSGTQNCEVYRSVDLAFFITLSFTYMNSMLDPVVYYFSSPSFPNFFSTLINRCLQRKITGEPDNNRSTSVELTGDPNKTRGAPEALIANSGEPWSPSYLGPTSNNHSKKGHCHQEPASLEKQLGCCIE
T3 sequence (P20309 whole entry): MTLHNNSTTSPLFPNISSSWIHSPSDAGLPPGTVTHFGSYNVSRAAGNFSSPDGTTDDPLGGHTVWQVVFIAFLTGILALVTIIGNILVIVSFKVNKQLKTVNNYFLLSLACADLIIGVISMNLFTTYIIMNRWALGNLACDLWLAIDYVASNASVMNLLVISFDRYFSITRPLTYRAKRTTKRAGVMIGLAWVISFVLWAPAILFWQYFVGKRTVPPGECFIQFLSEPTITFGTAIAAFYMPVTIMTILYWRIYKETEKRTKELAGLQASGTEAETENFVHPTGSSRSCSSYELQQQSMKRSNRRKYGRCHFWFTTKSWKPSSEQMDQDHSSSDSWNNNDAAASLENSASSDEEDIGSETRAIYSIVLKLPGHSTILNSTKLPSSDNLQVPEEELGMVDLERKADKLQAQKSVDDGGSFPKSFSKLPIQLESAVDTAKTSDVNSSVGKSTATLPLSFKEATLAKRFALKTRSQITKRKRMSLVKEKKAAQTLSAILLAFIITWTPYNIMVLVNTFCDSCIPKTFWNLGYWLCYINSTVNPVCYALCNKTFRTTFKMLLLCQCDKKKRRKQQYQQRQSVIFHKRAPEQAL
T9 sequence (P22888 27-699): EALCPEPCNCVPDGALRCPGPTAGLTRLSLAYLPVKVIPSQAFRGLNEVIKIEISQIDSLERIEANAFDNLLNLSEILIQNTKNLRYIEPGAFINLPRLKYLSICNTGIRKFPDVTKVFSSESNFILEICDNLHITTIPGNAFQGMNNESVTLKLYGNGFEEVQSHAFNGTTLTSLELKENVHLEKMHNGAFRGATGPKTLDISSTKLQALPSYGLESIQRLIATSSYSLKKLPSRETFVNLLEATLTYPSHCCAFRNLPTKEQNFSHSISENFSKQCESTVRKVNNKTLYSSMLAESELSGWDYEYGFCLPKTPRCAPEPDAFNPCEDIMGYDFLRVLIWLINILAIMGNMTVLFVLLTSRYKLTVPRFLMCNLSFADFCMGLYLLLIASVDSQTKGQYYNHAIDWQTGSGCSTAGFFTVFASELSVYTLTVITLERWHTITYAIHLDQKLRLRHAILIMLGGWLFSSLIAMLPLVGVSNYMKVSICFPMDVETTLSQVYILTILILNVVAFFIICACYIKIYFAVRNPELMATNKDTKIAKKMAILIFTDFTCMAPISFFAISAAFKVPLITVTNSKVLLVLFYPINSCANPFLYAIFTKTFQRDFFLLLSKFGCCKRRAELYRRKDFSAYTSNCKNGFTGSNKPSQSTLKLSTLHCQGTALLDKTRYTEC

SMILES	% Agonist Activity (168 GPCRs [1]; Conc 1 uM) [%]	% Antagonist Activity (168 GPCRs [1]; Conc 1 uM) [%]	% Agonist Activity (168 GPCRs [1]; Conc 10 uM) [%]	% Antagonist Activity (168 GPCRs [1]; Conc 10 uM) [%]	% Agonist Activity (168 GPCRs [2]; 1 uM) [%]	% Antagonist Activity (168 GPCRs [2]; 1 uM) [%]	% Agonist Activity (168 GPCRs [2]; 10 uM) [%]	% Antagonist Activity (168 GPCRs [2]; 10 uM) [%]	% Agonist Activity (168 GPCRs [3]; CHRM3, 1 uM) [%]	% Antagonist Activity (168 GPCRs [3]; CHRM3, 1 uM) [%]	% Agonist Activity (168 GPCRs [3]; CHRM3, 10 uM) [%]	% Antagonist Activity (168 GPCRs [3]; CHRM3, 10 uM) [%]	% Agonist Activity (168 GPCRs [4]; 1 uM) [%]	% Antagonist Activity (168 GPCRs [4]; 1 uM) [%]	% Agonist Activity (168 GPCRs [4]; 10 uM) [%]	% Antagonist Activity (168 GPCRs [4]; 10 uM) [%]	% Agonist Activity (168 GPCRs [5]; GALR1, 1 uM) [%]	% Antagonist Activity (168 GPCRs [5]; GALR1, 1 uM) [%]	% Agonist Activity (168 GPCRs [5]; GALR1, 10 uM) [%]	% Antagonist Activity (168 GPCRs [5]; GALR1, 10 uM) [%]	also measured
CNC(C)Cc1ccc2c(c1)OCO2 (stereo not drawn) [MDMA, 3,4-Methylenedioxy methamphetamine, reference compound]	1.7	16.7	0.5	18.1	-6.6	6.5	-3.4	-4.9	5.1	-9.4	4.3	1.4	0.7	-15.2	1.4	-11.4	0.7	-0.2	0.6	-5.1	% Agonist Activity (168 GPCRs [6]; BRS3, 1 uM): 2.6%; % Antagonist Activity (168 GPCRs [6]; BRS3, 1 uM): 7.9%; % Agonist Activity (168 GPCRs [6]; BRS3, 10 uM): -3%; % Antagonist Activity (168 GPCRs [6]; BRS3, 10 uM): 3.8%; % Agonist Activity (168 GPCRs [7]; Conc 1 uM): -0.2%; % Antagonist Activity (168 GPCRs [7]; Conc 1 uM): 4.4%; % Agonist Activity (168 GPCRs [7]; Conc 10 uM): -0.1%; % Antagonist Activity (168 GPCRs [7]; Conc 10 uM): -2.1%; % Agonist Activity (168 GPCRs [8]; Conc 1 uM): 1.3%; % Antagonist Activity (168 GPCRs [8]; Conc 1 uM): -3.9%; % Agonist Activity (168 GPCRs [8]; Conc 10 uM): 0.6%; % Antagonist Activity (168 GPCRs [8]; Conc 10 uM): 2.2%; % Agonist Activity (168 GPCRs [9]; 1 uM): 2.4%; % Antagonist Activity (168 GPCRs [9]; 1 uM): 1.2%; % Agonist Activity (168 GPCRs [9]; 10 uM): 0.9%; % Antagonist Activity (168 GPCRs [9]; 10 uM): -1%
CNC(C)C(=O)c1ccc2c(c1)OCO2 (stereo not drawn) [methylone]	-6.3	11.8	-4.1	10.4	-2.6	20.1	-4.4	15.9	6	-5.5	6	14.6	1	-16.5	0.5	-20.2	0.8	7.1	0.6	6.8	% Agonist Activity (168 GPCRs [6]; BRS3, 1 uM): 4.5%; % Antagonist Activity (168 GPCRs [6]; BRS3, 1 uM): 18.3%; % Agonist Activity (168 GPCRs [6]; BRS3, 10 uM): -4.6%; % Antagonist Activity (168 GPCRs [6]; BRS3, 10 uM): 10.1%; % Agonist Activity (168 GPCRs [7]; Conc 1 uM): -3.9%; % Antagonist Activity (168 GPCRs [7]; Conc 1 uM): 15.2%; % Agonist Activity (168 GPCRs [7]; Conc 10 uM): -4.4%; % Antagonist Activity (168 GPCRs [7]; Conc 10 uM): 8.9%; % Agonist Activity (168 GPCRs [8]; Conc 1 uM): -2.2%; % Antagonist Activity (168 GPCRs [8]; Conc 1 uM): 0.2%; % Agonist Activity (168 GPCRs [8]; Conc 10 uM): -4.9%; % Antagonist Activity (168 GPCRs [8]; Conc 10 uM): 5.4%; % Agonist Activity (168 GPCRs [9]; 1 uM): 0.4%; % Antagonist Activity (168 GPCRs [9]; 1 uM): 13.8%; % Agonist Activity (168 GPCRs [9]; 10 uM): 0.4%; % Antagonist Activity (168 GPCRs [9]; 10 uM): 11.2%
